In patent US11174242B2, “Heteroaryl compounds and their use” (Minoryx Therapeutics S.L., priority 2016, dated 2021):

Each molecule was assayed against T1, β-glucocerebrosidase, p.L444P mutation (GM08760A fibroblasts) (Homo sapiens, UniProt P04062, L483P) (assay: Enhancement of β-glucocerebrosidase activity measured in Gaucher disease fibroblasts (L444P)). Settings: commercially available compounds; increase in enzyme activity vs non-treated cells; GBA fibroblasts bearing L444P; 6-50 μM; 4 days.
T1 construct: host or cells: human Gaucher patient fibroblasts GM08760A, homozygous L444P
T1 sequence (P04062 40-536 L483P): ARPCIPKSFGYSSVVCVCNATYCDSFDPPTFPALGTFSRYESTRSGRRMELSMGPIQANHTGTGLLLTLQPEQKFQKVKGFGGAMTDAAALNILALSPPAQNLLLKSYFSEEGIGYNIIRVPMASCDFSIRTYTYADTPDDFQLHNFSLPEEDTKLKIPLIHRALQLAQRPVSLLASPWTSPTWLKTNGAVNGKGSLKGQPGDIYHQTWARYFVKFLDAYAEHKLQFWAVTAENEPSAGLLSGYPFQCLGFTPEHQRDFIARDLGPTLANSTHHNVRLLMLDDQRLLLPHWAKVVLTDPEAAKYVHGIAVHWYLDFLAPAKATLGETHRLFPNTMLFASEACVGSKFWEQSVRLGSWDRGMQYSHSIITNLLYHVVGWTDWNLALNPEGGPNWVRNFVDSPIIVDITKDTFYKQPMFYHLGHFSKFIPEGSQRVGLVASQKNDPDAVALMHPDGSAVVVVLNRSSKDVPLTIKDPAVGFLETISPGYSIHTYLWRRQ
Assay type: cell-based
Protocol: Enhancement of β-Glucocerebrosidase Activity Measured in Gaucher Disease Fibroblasts Materials
Human fibroblasts from a patient with Gaucher disease homozygous for p.L444P mutation (GM08760A) were purchased from Coriell Institute for Medical Research (Camden, N.J., USA).
Fibroblasts were seeded at 5×10^3 cells per well in 96-well cell culture plates (Corning, N.Y., USA) in Dulbecco's Modified Eagle's Media (DMEM) supplemented with 10% of fetal bovine serum (FBS), 1% penicillin/streptomycin (P/S) (Thermo Fisher Scientific, Waltham, Mass., USA) and grown at 37° C., 5% CO2 overnight for cell attachment. Subsequently, cells were incubated in the absence or presence of the compounds at the desired concentration for 4 days. After incubation, cells were washed twice with phosphate-buffered saline (PBS) and enzyme activity assay was performed.
β-glucocerebrosidase activity in intact cultured cells was measured by using 4-methylumbelliferyl-β-D-glucopyranoside substrate (Apollo Scientific, UK). Briefly, cells were incubated with 4-MU-β-D-glucopyranoside in 0.1 M acetate buffer pH=4 at 37° C. for 1 hour. […] The liberated 4-MU was measured on a GloMax Discover plate reader (Promega, Madison, Wis., USA) with and excitation at 340 nm and emission at 460 nm. Enzyme activities were expressed in treated cells as X-fold increase in comparison with non-treated cells (X=1 represents no enhancement).
The capacity of the compounds of the disclosure to produce an increase in enzyme activity in GBA fibroblasts bearing L444P at concentrations between 6 and 50 μM is denoted as follows:
The following compounds listed in Table 2 were purchased (from Enamine, Princeton, Asinex, Vistas-M, and OSSK_541352) and tested in the assay as described above.
For `Cc1ccc(Nc2nc(N)nc(CN(C)Cc3ccco3)n2)cc1` [6-(((furan-2-ylmethyl)(methyl)amino)methyl)-N2-(p-tolyl)-1,3,5-triazine-2,4-diamine], the “Activity L444P” value was “C (Increase in comparison with non-treated of 1.2-1.7 fold is shown as C)”.
In the case of `Cc1ccc(Nc2nc(N)nc(CN3CCN(c4ccccc4)CC3)n2)cc1` [6-((4-phenylpiperazin-1-yl)methyl)-N2-(p-tolyl)-1,3,5-triazine-2,4-diamine], the “Activity L444P” value is reported as “C (Increase in comparison with non-treated of 1.2-1.7 fold is shown as C)”.
In the case of `Cc1ccc(CN(C)Cc2nc(N)nc(Nc3ccccc3C)n2)cc1` [6-((methyl(4-methylbenzyl)amino)methyl)-N2-(o-tolyl)-1,3,5-triazine-2,4-diamine], the “Activity L444P” value is reported as “C (Increase in comparison with non-treated of 1.2-1.7 fold is shown as C)”.
For `Nc1nc(CN2CCCC2c2ccccc2)nc(Nc2ccc(F)cc2)n1` (centres unmarked) [N2-(4-fluorophenyl)-6-((2-phenylpyrrolidin-1-yl)methyl)-1,3,5-triazine-2,4-diamine], the “Activity L444P” value was “B (Increase in comparison with non-treated of >1.7-2.0 fold is shown as B)”.
With `COc1cccc(N2CCN(Cc3nc(N)nc(Nc4ccc(C)cc4)n3)CC2)c1` [6-((4-(3-methoxyphenyl)piperazin-1-yl)methyl)-N2-(p-tolyl)-1,3,5-triazine-2,4-diamine] the “Activity L444P” value was “C (Increase in comparison with non-treated of 1.2-1.7 fold is shown as C)”.
With `Cc1ccc(Nc2nc(N)nc(CN(C)CCOc3ccc(Cl)cc3)n2)cc1` [6-(((2-(4-chlorophenoxy)ethyl)(methyl)amino)methyl)-N2-(p-tolyl)-1,3,5-triazine-2,4-diamine] the “Activity L444P” value was “C (Increase in comparison with non-treated of 1.2-1.7 fold is shown as C)”.
For `COc1ccccc1Nc1nc(N)nc(CN(C)Cc2ccc3ccccc3c2)n1` [N2-(2-methoxyphenyl)-6-((methyl(naphthalen-2-ylmethyl)amino)methyl)-1,3,5-triazine-2,4-diamine], the “Activity L444P” value was “B (Increase in comparison with non-treated of >1.7-2.0 fold is shown as B)”.
For `Cc1ccccc1Nc1nc(N)nc(CN(C)c2ccccc2)n1` [6-((methyl(phenyl)amino)methyl)-N2-(o-tolyl)-1,3,5-triazine-2,4-diamine], the “Activity L444P” value was “C (Increase in comparison with non-treated of 1.2-1.7 fold is shown as C)”.

Same assay, conditions: increase in enzyme activity vs non-treated cells; GBA fibroblasts bearing L444P; concentrations between 6 and 50 μM; 4 days incubation
With `Cc1ccc(Nc2cc(CN(C)Cc3cccnc3)nc(N)n2)cc1` [Example 61, 6-((Methyl(pyridin-3-ylmethyl)amino)methyl)-N^4-p-tolylpyrimidine-2,4-diamine] the “Activity L444P” value was “C (Increase in comparison with non-treated of 1.2-1.7 fold is shown as C)”.
With `COc1cccc(Nc2cc(CN(C)Cc3cccc(C)c3)nc(N)n2)c1` [Example 38] the “Activity L444P” value was “B (Increase in comparison with non-treated of >1.7-2.0 fold is shown as B)”.
In the case of `Cc1cccc(Nc2cc(CN(C)Cc3cccc(C#N)c3)nc(N)n2)c1` [Example 39, 3-((((2-Amino-6-(m-tolylamino)pyrimidin-4-yl)methyl)(methyl)amino)methyl) benzonitrile], the “Activity L444P” value is reported as “C (Increase in comparison with non-treated of 1.2-1.7 fold is shown as C)”.
`COc1ccccc1Nc1nc(N)cc(CN2CCc3ccccc3C2)n1` [Example 71, (6-((3,4-Dihydroisoquinolin-2(1H)-yl)methyl)-N-(2-methoxyphenyl)pyrimidine-2,4-diamine)] was tested, and the “Activity L444P” value was “C (Increase in comparison with non-treated of 1.2-1.7 fold is shown as C)”.
In the case of `CN(Cc1ccccc1)Cc1cc(Nc2cccc(C#N)c2)nc(N)n1` [Example 29, 3-(2-Amino-6-((benzyl(methyl)amino)methyl)pyrimidin-4-ylamino)benzonitrile], the “Activity L444P” value is reported as “B (Increase in comparison with non-treated of >1.7-2.0 fold is shown as B)”.
`Cc1ccc(Nc2cc(CN(C)Cc3ccncc3)nc(N)n2)cc1` [Example 60, 6-((Methyl(pyridin-4-ylmethyl)amino)methyl)-N^4-p-tolylpyrimidine-2,4-diamine] was tested, and the “Activity L444P” value was “C (Increase in comparison with non-treated of 1.2-1.7 fold is shown as C)”.
With `Cc1ccc(Nc2nc(N)cc(CN(C)Cc3ccccc3)n2)cc1` [Example 23, 6-((benzyl(methyl)amino)methyl)-N^2-p-tolylpyrimidine-2,4-diamine] the “Activity L444P” value was “B (Increase in comparison with non-treated of >1.7-2.0 fold is shown as B)”.
With `COc1cccc(Nc2cc(CN(C)Cc3ccccc3)nc(N)n2)c1` [Example 17] the “Activity L444P” value was “B (Increase in comparison with non-treated of >1.7-2.0 fold is shown as B)”.
For `CN(Cc1ccccc1)Cc1nc(N)nc(Nc2ccc(C#N)cc2)n1` [Example 11, 4-(4-Amino-6-((benzyl(methyl)amino)methyl)-1,3,5-triazin-2-ylamino)benzonitrile], the “Activity L444P” value was “C (Increase in comparison with non-treated of 1.2-1.7 fold is shown as C)”.
For `CN(Cc1ccccc1)Cc1cc(Nc2ccc(Cl)cc2)nc(N)n1` [Example 21, 6-((benzyl(methyl)amino)methyl)-N^4-(4-chlorophenyl)pyrimidine-2,4-diamine], the “Activity L444P” value was “B (Increase in comparison with non-treated of >1.7-2.0 fold is shown as B)”.
For `COc1cccc(CN(C)Cc2cc(Nc3ccc(C)cc3)nc(N)n2)c1` [Example 53, 6-(((3-Methoxybenzyl)(methyl)amino)methyl)-N^4-p-tolylpyrimidine-2,4-diamine], the “Activity L444P” value was “C (Increase in comparison with non-treated of 1.2-1.7 fold is shown as C)”.
`COc1cccc(Nc2cc(CN(C)c3cccc(OC)c3)nc(N)n2)c1` [Example 51] was tested, and the “Activity L444P” value was “C (Increase in comparison with non-treated of 1.2-1.7 fold is shown as C)”.
In the case of `Cc1ccc(Nc2cc(CN(C)Cc3cccc(C)c3)nc(N)n2)cc1` [Example 32, 6-((Methyl(3-methylbenzyl)amino)methyl)-N^4-p-tolylpyrimidine-2,4-diamine], the “Activity L444P” value is reported as “C (Increase in comparison with non-treated of 1.2-1.7 fold is shown as C)”.
`COc1ccc(Nc2nc(N)nc(CN(C)c3ccccc3)n2)cc1` [Example 2, N^2-(4-Methoxyphenyl)-6-((methyl(phenyl)amino)methyl)-1,3,5-triazine-2,4-diamine] was tested, and the “Activity L444P” value was “C (Increase in comparison with non-treated of 1.2-1.7 fold is shown as C)”.
In the case of `Cc1ccc(Nc2cc(CN(C)Cc3ccc(C#N)cc3)nc(N)n2)cc1` [Example 57, 4-((((2-Amino-6-(p-tolylamino)pyrimidin-4-yl)methyl)(methyl)amino)methyl)benzonitrile], the “Activity L444P” value is reported as “C (Increase in comparison with non-treated of 1.2-1.7 fold is shown as C)”.
With `COc1ccc(Nc2cc(N)nc(CN(C)Cc3ccccc3)n2)cc1` [Example 66, 2-((Benzyl(methyl)amino)methyl)-N^4-(4-methoxyphenyl)pyrimidine-4,6-diamine] the “Activity L444P” value was “B (Increase in comparison with non-treated of >1.7-2.0 fold is shown as B)”.
For `CCc1ccc(CN(C)Cc2cc(Nc3cccc(OC)c3)nc(N)n2)cc1` [Example 40, 6-(((4-Ethylbenzyl)(methyl)amino)methyl)-N^4-(3-methoxyphenyl)pyrimidine-2,4-diamine], the “Activity L444P” value was “B (Increase in comparison with non-treated of >1.7-2.0 fold is shown as B)”.
In the case of `Cc1ccc(Nc2cc(CN3CCc4ccccc4C3)nc(N)n2)cc1` [Example 35, 6-((3,4-Dihydroisoquinolin-2(1H)-yl)methyl)-N^4-p-tolylpyrimidine-2,4-diamine], the “Activity L444P” value is reported as “B (Increase in comparison with non-treated of >1.7-2.0 fold is shown as B)”.
With `COCCN(Cc1ccccc1)Cc1cc(Nc2cccc(OC)c2)nc(N)n1` [Example 49, 6-((Benzyl(2-methoxyethyl)amino)methyl)-N^4-(3-methoxyphenyl)pyrimidine-2,4-diamine] the “Activity L444P” value was “C (Increase in comparison with non-treated of 1.2-1.7 fold is shown as C)”.
For `Cc1ccc(Nc2cc(N)nc(CN(C)Cc3ccccc3)n2)cc1` [Example 22, 2-((Benzyl(methyl)amino)methyl)-N^4-(p-tolyl)pyrimidine-4,6-diamine], the “Activity L444P” value was “B (Increase in comparison with non-treated of >1.7-2.0 fold is shown as B)”.
For `Cc1ccc(Nc2nc(N)nc(CNC3CCc4ccccc4C3)n2)cc1` (centres unmarked) [Example 27, 6-(((1,2,3,4-Tetrahydronaphthalen-2-yl)amino)methyl)-N-(p-tolyl)-1,3,5-triazine-2,4-diamine], the “Activity L444P” value was “C (Increase in comparison with non-treated of 1.2-1.7 fold is shown as C)”.
